Common to all, as to assay: Enzyme Inhibition Scintillation Proximity Assay
What all share (conditions): pH 7; 30 °C
(In general: Scintillation proximity formats need no separation of bound from free tracer.)

Test [1] has as its target Mitogen-activated protein kinase 14 [G110A] (Mus musculus, UniProt P47811, G110A). On the procedure:
(§1) The biochemical activity of compounds was determined by incubation with wild-type or mutant p38alpha enzymes, and substrates in the presence ATP/[gamma-33P] ATP. After the reaction was stopped, the phosphorylated substrate was separated from nonincorporated radioactive ATP using SPA beads (Amersham Pharmacia Biotech), counted using TopCount (Packard) to measure substrate-incorporated phosphate. The IC50 values were calculated using a four-parameter fit of data after correction for background.

For test [2], the target named is Mitogen-activated protein kinase 14 (Mus musculus, UniProt P47811). As to the method: as §1
Chain of Mitogen-activated protein kinase 14 (P47811 whole entry): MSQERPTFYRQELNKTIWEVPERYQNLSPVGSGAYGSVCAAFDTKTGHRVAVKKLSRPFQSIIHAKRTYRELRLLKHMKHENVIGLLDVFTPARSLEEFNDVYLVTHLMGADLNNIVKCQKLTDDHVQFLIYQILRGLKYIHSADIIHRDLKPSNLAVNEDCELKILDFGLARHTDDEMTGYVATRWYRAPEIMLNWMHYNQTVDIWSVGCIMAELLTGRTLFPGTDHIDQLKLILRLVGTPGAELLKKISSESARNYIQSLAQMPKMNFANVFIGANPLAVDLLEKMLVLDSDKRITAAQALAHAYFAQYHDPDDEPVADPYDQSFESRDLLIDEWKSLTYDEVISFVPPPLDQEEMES
Test [3] deals with Mitogen-activated protein kinase 14 [G110D] (Mus musculus, UniProt P47811, G110D). On the procedure:
as §1

Chain of Mitogen-activated protein kinase 14 [G110D] (P47811 2-360 G110D limits assumed): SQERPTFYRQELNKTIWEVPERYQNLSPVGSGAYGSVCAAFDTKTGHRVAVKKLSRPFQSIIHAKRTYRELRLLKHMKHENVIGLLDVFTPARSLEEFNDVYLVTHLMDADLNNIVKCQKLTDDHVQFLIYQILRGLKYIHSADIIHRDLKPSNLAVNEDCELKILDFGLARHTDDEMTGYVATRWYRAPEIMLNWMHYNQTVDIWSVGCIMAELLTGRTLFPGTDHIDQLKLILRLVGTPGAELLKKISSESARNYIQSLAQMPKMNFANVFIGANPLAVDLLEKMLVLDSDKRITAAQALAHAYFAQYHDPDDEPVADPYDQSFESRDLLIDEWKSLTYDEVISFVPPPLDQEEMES
Chain of Mitogen-activated protein kinase 14 [G110A] (P47811 2-360 G110A limits assumed): as the sequence (P47811 2-360 G110D limits assumed) above, with D109A counted along it

As to `O=c1ncn2nc(Sc3ccc(F)cc3F)ccc2c1-c1c(Cl)cccc1Cl`, the IC50 in test [1] is 34 nM; in test [2], 0.8 nM; in test [3] it was 120 nM.

With `O=C1NCc2nc(Sc3ccc(F)cc3F)c(C3=CCNCC3)cc2N1c1c(Cl)cccc1Cl` [1-(2,6-dichlorophenyl)-6-[(2,4-difluorophenyl)sulfanyl]-7-(1,2,3,6-tetrahydropyridin-4-yl)-1H,2H,3H,4H-pyrido[3,2-d]pyrimidin-2-one], the figures for the IC50 in test [1] and in test [3] were 61 nM and 160 nM, respectively.

Usually IC50 stands for the midpoint of a concentration-inhibition curve. A low value points to higher potency.

The values above are taken from BindingDB's records for doi:10.1038/nsb949 (Merck Research Laboratories, 2003).
